Results taken from patent US12357642B2, “Hazardous agent injection system” (Antares Pharma, Inc., priority 2009, dated 2025).
“And” between values parts separate entries of the source, which are not always exact repeats. Equal values may be shown once. “Also recorded” adds a separate entry of the source. Read-outs that look alike come from different tables or passages of the source.

Key:
[1] = cited from earlier work
[2] = oral, 5 mg/m^2 per week increased to 10 mg/m^2 per week, 46 patients; cited from earlier work
[3] = test system: patients with active rheumatoid arthritis; details: cited from earlier work; for median Disease Activity Score (DAS28) / number of swollen joints / number of tender joints / patients with an ACR20 response: 24 weeks; for patients achieving ACR20: starting dose 15 mg per week; for median Health Assessment Questionnaire (HAQ) score / patients achieving an ACR70 response: week 24; for time to achieve an ACR20 response: same subgroup (n=98); for ACR20 responders: subgroup >1 year between diagnosis and study entry with prior antirheumatic compounds or steroids (n=98)
[4] = cited from earlier work; remark: listed apart in the source
[5] = 15 mg, 10 rheumatoid arthritis patients, cited from earlier work
[6] = Pharmacokinetics of methotrexate in minipig plasma after subcutaneous injection with autoinjector or needle/syringe
[7] = cited from earlier work; for average mean serum concentration: pediatric patients with juvenile rheumatoid arthritis
[8] = test system: patients with rheumatoid arthritis; details: cited from earlier work
[9] = test system: rheumatoid arthritis patients; details: cited from earlier work
[10] = Female, Auto injector, SC, Dose Level 12.5, individual animals
[11] = Female, Syringe, SC, Dose Level 12.5, individual animals
[12] = Male, Auto injector, SC, Dose Level 12.5, individual animals
[13] = Male, Syringe, SC, Dose Level 12.5, individual animals

CN(Cc1cnc2nc(N)nc(N)c2n1)c1ccc(C(=O)N[C@@H](CCC(=O)O)C(=O)O)cc1 [Methotrexate, L-(+)—N-[p-[[(2,4-Diamino-6-pteridinyl)methyl]methylamino]-benzoyl]glutamic acid]
average DAS28 ([1]; after switch from oral to intramuscular administration at 15 mg per week): 5.2
average DAS28 ([1]; before switch from oral to intramuscular administration at 15 mg per week): 5.6
disease improvement compared to placebo ([1]; intramuscular dosage escalated 15 to 45 mg per week, 54 patients who did not achieve DAS28<3.2): no difference in disease improvement
effect of higher doses [2]: dose-related efficacy response together with a trend toward increased toxicity
patients classified as ACR20 non-responders ([3]; 16 weeks, of the total tested (52 patients)): 14%
median Disease Activity Score (DAS28) ([3]; oral): 3.7
number of swollen joints ([3]; oral): 3
number of tender joints ([3]; oral): 6
patients with an ACR20 response ([3]; oral): 70%
patients achieving ACR20 ([3]; oral, 16 weeks): 77%
median Health Assessment Questionnaire (HAQ) score ([3]; oral): 0.5
patients achieving an ACR70 response ([3]; oral): 33%
time to achieve an ACR20 response ([3]; oral): 6 weeks
ACR20 responders ([3]; oral): 63%
rate of adverse events, subcutaneous versus oral ([3]; same dose): not accompanied by a significantly higher rate of adverse events
further non-responders with positive ACR20 response after dose increase ([3]; subcutaneous dosage increased from 15 mg to 20 mg): 23%
median Disease Activity Score (DAS28) ([3]; subcutaneous): 3.3
number of swollen joints ([3]; subcutaneous): 2
number of tender joints ([3]; subcutaneous): 3.5
patients with an ACR20 response ([3]; subcutaneous): 78%
patients achieving ACR20 ([3]; subcutaneous, 16 weeks): 85%
median Health Assessment Questionnaire (HAQ) score ([3]; subcutaneous): 0.4
patients achieving an ACR70 response ([3]; subcutaneous): 41%
time to achieve an ACR20 response ([3]; subcutaneous): 4 weeks
ACR20 responders ([3]; subcutaneous): 89%
non-responders with positive ACR20 response after switch ([3]; switched from 15 mg oral to 15 mg subcutaneous): 30%
peak serum concentrations and bioavailability, intramuscular versus subcutaneous ([4]; 12.5 mg to 25 mg per week): similar
Tmax after subcutaneous versus intramuscular administration ([4]; in 4 out of 5 patients tested): faster
oral bioavailability ([5]; fasting): 67%
oral bioavailability ([5]; fed): 63%
Methotrexate in samples collected prior to dosing ([6]; Female, autoinjector, Day 8, attributed to carryover of the instrument, LLOQ=0.2 ng/mL): 3.19 ng/mL
AUC(0-mx) [6, 10]: 2501 ng·mL·h and 3172 ng·mL·h
AUC(0-t) [6, 10]: 2498 ng·mL·h and 3169 ng·mL·h
T½ [6, 10]: 3.91 h and 3.95 h
AUC(0-t) ([6]; Female, Autoinjector, Day 8, individual animals): 3.169 µg·h/mL
AUC(0-t) ([6]; Female, Needle/Syringe, Day 1, individual animals): 2.669 µg·h/mL and 1.831 µg·h/mL
AUC(0-mx) [6, 11]: 2675 ng·mL·h and 1832 ng·mL·h
AUC(0-t) [6, 11]: 2669 ng·mL·h and 1831 ng·mL·h
Tmax [6, 11]: 0.50 h
T½ [6, 11]: 4.90 h and 2.53 h
AUC(0-mx) [6, 12]: 1903 ng·mL·h and 1407 ng·mL·h
AUC(0-t) [6, 12]: 1901 ng·mL·h and 1405 ng·mL·h
T½ [6, 12]: 2.00 h and 1.81 h
AUC(0-t) ([6]; Male, Autoinjector, Day 1, individual animals): 1.405 µg·h/mL and 1.162 µg·h/mL
AUC(0-t) ([6]; Male, Needle/Syringe, Day 8, individual animals): 2.016 µg·h/mL and 1.324 µg·h/mL
AUC(0-t) [6, 13]: 2464 ng·mL·h and 2016 ng·mL·h
Tmax [6, 13]: 0.50 h
difference in exposure / PK parameters between males and females ([6]; SC 12.5 mg, both devices): no marked difference; also recorded: no marked sex-related differences
exposure with autoinjector compared with needle/syringe ([6]; SC 12.5 mg, male and female minipigs): very similar; also recorded: comparable
time at which maximal plasma concentrations were generally observed ([6]; both devices, SC 12.5 mg, first collection time point): 0.25 h
half-life ([6]; both, Gottingen, minipig, plasma, subcutaneous, 12.5 mg, terminal elimination half-life, range over animals and both devices, where it could be estimated): 1.81 to 4.9 h
AUC(0-t) ([6]; female, Gottingen, minipig, plasma, sc, 12.5 mg, AUC(0-t), Female, Autoinjector, Day 8, individual animals): 2.5 µg·h/mL
AUC(0-t) ([6]; female, Gottingen, minipig, plasma, sc, 12.5 mg, AUC(0-t), Female, Needle/Syringe, Day 1, individual animals): 2.38 µg·h/mL
Tmax ([6]; female, Gottingen, minipig, plasma, sc, […], Tmax, Auto injector, Dose Level 12.5, Median value): 0.25 h
Tmax ([6]; female, Gottingen, minipig, plasma, sc, […], Tmax, Auto injector, Dose Level 12.5, individual animals): 0.25 h
Tmax ([6]; female, Gottingen, minipig, plasma, sc, […], Tmax, Syringe, Dose Level 12.5, Median value): 0.25 h
Tmax ([6]; female, Gottingen, minipig, plasma, sc, […], Tmax, Syringe, Dose Level 12.5, individual animals): 0.25 h
half-life ([6]; female, Gottingen, minipig, plasma, sc, […], T½, Auto injector, Dose Level 12.5, Mean): 3.71 h
half-life ([6]; female, Gottingen, minipig, plasma, sc, […], T½, Auto injector, Dose Level 12.5, individual animals): 3.26 h
half-life ([6]; female, Gottingen, minipig, plasma, sc, […], T½, Syringe, Dose Level 12.5, Mean): 3.39 h
half-life ([6]; female, Gottingen, minipig, plasma, sc, […], T½, Syringe, Dose Level 12.5, individual animals): 2.74 h
AUC(0-t) ([6]; male, Gottingen, minipig, plasma, sc, 12.5 mg, AUC(0-t), Male, Autoinjector, Day 1, individual animals): 1.9 µg·h/mL
AUC(0-t) ([6]; male, Gottingen, minipig, plasma, sc, 12.5 mg, AUC(0-t), Male, Needle/Syringe, Day 8, individual animals): 2.46 µg·h/mL
concentration at 24 h ([6]; male, Gottingen, minipig, plasma, sc, […], Concentration of Methotrexate in plasma, Males, Autoinjector, 24 h, individual animals, BQL = below quantitation limit 0.200 ng/mL): 0.696 ng/mL
Tmax ([6]; male, Gottingen, minipig, plasma, sc, […], Tmax, Auto injector, Dose Level 12.5, Median value): 0.25 h
Tmax ([6]; male, Gottingen, minipig, plasma, sc, […], Tmax, Auto injector, Dose Level 12.5, individual animals): 0.25 h
Tmax ([6]; male, Gottingen, minipig, plasma, sc, […], Tmax, Syringe, Dose Level 12.5, Median value): 0.25 h
Tmax ([6]; male, Gottingen, minipig, plasma, sc, […], Tmax, Syringe, Dose Level 12.5, individual animals): 0.25 h
half-life ([6]; male, Gottingen, minipig, plasma, sc, […], T½, Auto injector, Dose Level 12.5, Mean): 1.92 h
half-life ([6]; male, Gottingen, minipig, plasma, sc, […], T½, Auto injector, Dose Level 12.5, individual animals): 1.95 h
half-life ([6]; male, Gottingen, minipig, plasma, sc, […], T½, Syringe, Dose Level 12.5, individual animals): 1.91 h
initial average distribution volume ([7]; after intravenous administration): about 0.18 L/kg
absorption from parenteral routes of injection ([7]; human, in vivo): completely absorbed
average mean serum concentration ([7]; at about 1 hour): about 0.59 μM
average mean serum concentration ([7]; at about 3 hours): about 0.29 μM
patients reporting nausea ([8]; after switching to oral): 48%
patients reporting nausea ([8]; switched back to intramuscular): 40%
patients judged to have moderate or marked improvement ([9]; 10 mg to 15 mg intramuscular once a week, 78 rheumatoid arthritis patients): Eighty-two
patients who deteriorated after switch to oral and improved after switching back to intramuscular ([9]; of the 48 patients who switched to oral): 10 patients
